Measured values published in patent US4694069A, “Kibdelosporangium aridum SK&F-AAD-609” (SmithKline Beckman Corporation, priority 1985, dated 1987).

Assays:
[1] = system: mixed intestinal microflora (cecum fluid); test: Swine in vitro model; settings: one level, up to 166.67 ppm; 4-5 h
Description: A swine in vitro model was used to characterize AAD-609 antibiotics as potential feed additives in swine and poultry. Mixed intestinal microflora were obtained from ileally-cannulated pigs. Virginiamycin, carbadox, AAD-216 and its components, and AAD-609 Complex (containing less than 5% AAD-216 antibiotics) were tested at one level. […] Glucose (GLU) was spared from microbial degradation. Volatile fatty acids (TOTAL) were the major end-product of microbial metabolism while lactic acid production were reduced. […] Since AAD-609 and AAD-216 give similar in vitro results, it is expected that AAD-609 has similar growth-promoting activity in monogastric animals. Also, the in vitro activity of AAD-609 is similar to the activity previously observed with bacitracin in this model.
The swine in vitro model was carried out by incubating 1.5 ml of cecum fluid, from a swine fed normal rations, mixed with 1.5 ml of a nutrient broth (3 mg casein hydrolysate, 30 mg maltose, 1.25 mg urea, 0.5 mg lysine, and 30 mg cellobiose) and with up to 166.67 parts per million of a selected growth promotant at 39° C., with oscillation, for about 4-5 hours. Results, percentage of control, are reported in the following table in which all abbreviations are as above except that LLA means L-lactate and ETOH means ethanol.

[2] = system: rumen fermentation (strained rumen fluid); test: Rumen in vitro model; parameters: species or system steer; settings: for AAN (alpha amino nitrogen) / AMO (ammonia nitrogen) / LYS (lysine): 6 h; for % PR (percent propionate) / ACE (acetate) / BUT (butyrate) / ETOH (ethanol) / IBU (isobutyrate) / IVA (isovalerate) / PRO (propionate) / TOTAL (total volatile fatty acids) / VAL: 24 h
Description: The AAD-609 antibiotics were characterized in a rumen in vitro model to assess their potential as feed additives for ruminants. […] Specifically, strained rumen fluid (10 ml) obtained from a fistulated steer receiving a roughage ration, was mixed with 10 ml of nutrient broth (20 mg casein hydrolysate, 100 mg maltose, 15 mg urea, 400 mg solka floc (cellulose), 100 mg cellobiose and 100 mg starch) and with a selected growth promotant and incubated at 39° C., with oscillation, for 24 hours. […] Measurement of AMO, LYS and AAN was done with a sample taken from the incubation flask after 6 hours.

## COC(=O)N/N=C/c1c[n+]([O-])c2ccccc2[n+]1[O-] [Carbadox, carbadox]
[1]
  % PR (percent propionate): 38 % of control
  ACE (acetate): 47 % of control
  BUT (butyrate): 46 % of control
  ETOH (ethanol): 62 % of control
  GLU (glucose): 138 % of control
  IBU (isobutyrate): 0 % of control
  IVA (isovalerate): 0 % of control
  LLA (L-lactate): 9 % of control
  LYS (lysine): 79 % of control
  PRO (propionate): 11 % of control
  TOTAL (total volatile fatty acids): 30 % of control
  VAL: 0 % of control

## CC[C@@]1([C@@H]2O[C@@H]([C@H]3O[C@@](O)(CO)[C@H](C)C[C@@H]3C)C[C@@H]2C)CC[C@H]([C@]2(C)CC[C@]3(C[C@H](O)[C@@H](C)[C@@H]([C@@H](C)[C@@H](OC)[C@H](C)C(=O)O)O3)O2)O1 [Monensin, monensin]
[2]; 0.50 ppm
  AAN (alpha amino nitrogen): 117 % of control
  AMO (ammonia nitrogen): 103 % of control
  LYS (lysine): 78 % of control
  % PR (percent propionate): 131 % of control
  ACE (acetate): 100 % of control
  BUT (butyrate): 92 % of control
  ETOH (ethanol): 0 % of control
  IBU (isobutyrate): 112 % of control
  IVA (isovalerate): 150 % of control
  PRO (propionate): 141 % of control
  TOTAL (total volatile fatty acids): 108 % of control
  VAL: 100 % of control
[2]; 5.00 ppm
  AAN (alpha amino nitrogen): 185 % of control
  AMO (ammonia nitrogen): 101 % of control
  LYS (lysine): 144 % of control
  % PR (percent propionate): 189 % of control
  ACE (acetate): 101 % of control
  BUT (butyrate): 61 % of control
  ETOH (ethanol): 0 % of control
  IBU (isobutyrate): 84 % of control
  IVA (isovalerate): 103 % of control
  PRO (propionate): 208 % of control
  TOTAL (total volatile fatty acids): 110 % of control
[2]; 50.00 ppm
  AAN (alpha amino nitrogen): 248 % of control
  AMO (ammonia nitrogen): 101 % of control
  LYS (lysine): 186 % of control
  ACE (acetate): 96 % of control
  BUT (butyrate): 53 % of control
  ETOH (ethanol): 0 % of control
  IBU (isobutyrate): 123 % of control
  IVA (isovalerate): 132 % of control
  PRO (propionate): 258 % of control
  TOTAL (total volatile fatty acids): 117 % of control
  VAL: 81 % of control

## avoparcin
[2]; 0.50 ppm
  AAN (alpha amino nitrogen): 99 % of control
  AMO (ammonia nitrogen): 93 % of control
  LYS (lysine): 120 % of control
  % PR (percent propionate): 102 % of control
  ACE (acetate): 100 % of control
  BUT (butyrate): 103 % of control
  ETOH (ethanol): 0 % of control
  IBU (isobutyrate): 91 % of control
  IVA (isovalerate): 97 % of control
  PRO (propionate): 104 % of control
  TOTAL (total volatile fatty acids): 102 % of control
  VAL: 103 % of control
[2]; 5.00 ppm
  AAN (alpha amino nitrogen): 120 % of control
  AMO (ammonia nitrogen): 97 % of control
  LYS (lysine): 150 % of control
  % PR (percent propionate): 123 % of control
  ACE (acetate): 94 % of control
  BUT (butyrate): 82 % of control
  ETOH (ethanol): 0 % of control
  IBU (isobutyrate): 103 % of control
  IVA (isovalerate): 94 % of control
  PRO (propionate): 116 % of control
  TOTAL (total volatile fatty acids): 94 % of control
  VAL: 73 % of control
[2]; 50.00 ppm
  AAN (alpha amino nitrogen): 182 % of control
  AMO (ammonia nitrogen): 111 % of control
  LYS (lysine): 114 % of control
  % PR (percent propionate): 129 % of control
  ACE (acetate): 98 % of control
  BUT (butyrate): 90 % of control
  ETOH (ethanol): 0 % of control
  IBU (isobutyrate): 117 % of control
  IVA (isovalerate): 90 % of control
  PRO (propionate): 130 % of control
  TOTAL (total volatile fatty acids): 101 % of control
  VAL: 68 % of control
